Patent publication US20090162413A1 (priority 1998, published 2009)
Like-named read-outs stand apart in the source and are kept apart here.

Tests used:
[1] = release of zotarolimus from PC polymer coated 316L stainless steel coupons (Example 4); assay type: physicochemical
Source text: The purpose of this example is to determine the rate of release of the zotarolimus drug from 316L Electropolished Stainless Steel Coupons coated with a biocompatible polymer containing phosphorylcholine side groups.
Rubber septa from lids from HPLC vials were removed from the vials and placed into glass vials so that the “Teflon” side faced up. These septa served as supports for the test samples. The test samples were 316L stainless steel coupons that had been previously coated with a biocompatible polymer containing phosphorylcholine side groups (PC polymer). Coronary stents are commonly made of 316L stainless steel and can be coated with the PC polymer to provide a depot site for loading drugs. The coated coupons, which serve to simulate stents, were placed onto the septa. By using a glass Hamilton Syringe, a solution of zotarolimus and ethanol (10 μl) was applied to the surface of each coupon. The solution contained zotarolimus (30.6 mg) dissolved in 100% ethanol (3.0 ml). The syringe was cleaned with ethanol between each application. The cap to the glass vial was placed on the vial loosely, thereby assuring proper ventilation. The coupon was allowed to dry for a minimum of 1.5 hours. Twelve (12) coupons were loaded in this way—six being used to determine the average amount of drug loaded onto the device and six being used to measure the time needed to release the drug from the devices.
To determine the total amount of zotarolimus loaded onto a coupon, a coupon was removed from the vial and placed into 50/50 acetonitrile/0.01M phosphate buffer (pH 6.0, 5.0 ml). The coupon was placed onto a 5210 Branson sonicator for one hour. The coupon was then removed from the solution, and the solution was assayed by HPLC.
The time release studies were performed by immersing and removing the individual coupons from fresh aliquots (10.0 ml) of 0.01 M phosphate buffer at a pH of 6.0 at each of the following time intervals −5, 15, 30 and 60 minutes. For the remaining time points of 120, 180, 240, 300, 360 minutes, volumes of 5.0 ml of buffer were used. To facilitate mixing during the drug release phase, the samples were placed onto an Eberbach shaker set at low speed. All solution aliquots were assayed by HPLC after the testing of the last sample was completed.
The HPLC analysis was performed with a Hewlett Packard series 1100 instrument having the following settings: […]

[2] = Phase 1 single escalating intravenous dose safety and pharmacokinetics (Example 6); assay type: in vivo, human; details: for β: elimination rate constant; for tolerability: single IV doses of 100 to 900 μg
Experimental: In the present, first-time-in-man study, the safety and pharmacokinetics of zotarolimus were investigated following intravenous bolus administration of zotarolimus over a 100 to 900 μg dose range. The intravenous bolus dose administration would mimic the most rapid unexpected release of zotarolimus from drug-coated stents in vivo.
This was a Phase 1, single escalating dose, double-blind, randomized, placebo-controlled, single-center study. Sixty (60) adult healthy males were divided into 5 IV dose groups of 100, 300, 500, 700, and 900 μg.
Subjects were randomly assigned to receive a single intravenous dose of zotarolimus or a matching intravenous placebo under fasting conditions, as shown in the dosing scheme shown in Table 9.
Higher doses were administered after evaluating the safety data from the preceding lower dose groups. The treatment groups were separated by at least 7 days. For safety reasons, each treatment group was divided into two cohorts of six subjects and the doses of the two cohorts of a group were separated by at least 1 day.
Doses were administered as IV bolus over 3 minutes, with 8 subjects. Four subjects received zotarolimus and 4 subjects received placebo in each dose group. Blood concentrations of zotarolimus were sampled for 168 hours and measured using LC-MS/MS with a LOQ of 0.20 ng/mL
Seven (7)-mL blood samples were collected by venipuncture into evacuated collection tubes containing edetic acid (EDTA) prior to dosing (0 hour) and at 0.083 (5 min), 0.25, 0.5, 1, 2, 4, 8, 12, 16, 24, 36, 48, 72, 96, 120, 144, and 168 hours after dosing on Study Day 1.
Blood concentrations of zotarolimus were determined using a validated liquid/liquid extraction HPLC tandem mass spectrometric method (LC-MS/MS) (Ji et al., 2004). The lower limit of quantification of zotarolimus was 0.20 ng/mL using 0.3 mL blood sample. All calibration curves had coefficient of determination (r^2) values greater than or equal to 0.9923.
Safety was evaluated based on adverse event, physical examination, vital signs, ECG, injection site and laboratory tests assessments.
Pharmacokinetic parameter values of zotarolimus were estimated using noncompartmental methods.
To investigate the questions of dose proportionality and linear pharmacokinetics, an analysis of covariance (ANCOVA) was performed. Subjects were classified by dose level, and body weight was a covariate. The variables analyzed included β, Vdβ, dose-normalized C5, and logarithms of dose-normalized AUC0-last and dose-normalized AUC0-inf. The primary test of the hypothesis of invariance with dose was a test on dose-level effects with good power for a monotonic function of dose. In addition, the highest and lowest dose levels were compared within the framework of the ANCOVA

[3] = single IV bolus 100 μg, mean ± SD
[4] = single IV bolus 300 μg, mean ± SD
[5] = single IV bolus 500 μg, mean ± SD
[6] = single IV bolus 700 μg, mean ± SD
[7] = single IV bolus 900 μg, mean ± SD

CO[C@H]1C[C@@H]2CC[C@@H](C)[C@@](O)(O2)C(=O)C(=O)N2CCCC[C@H]2C(=O)O[C@H]([C@H](C)C[C@@H]2CC[C@H](n3cnnn3)[C@H](OC)C2)CC(=O)[C@H](C)/C=C(\C)[C@@H](O)[C@@H](OC)C(=O)[C@H](C)C[C@H](C)/C=C/C=C/C=C/1C [zotarolimus]
Percent Release ([1]; 0.01 M phosphate buffer pH 6.0, 0.00 min): 0.00
Percent Release ([1]; 0.01 M phosphate buffer pH 6.0, 5.00 min): 1.87
Percent Release ([1]; 0.01 M phosphate buffer pH 6.0, 15.00 min): 2.97
Percent Release ([1]; 0.01 M phosphate buffer pH 6.0, 30.00 min): 3.24
Percent Release ([1]; 0.01 M phosphate buffer pH 6.0, 60.00 min): 3.29
Percent Release ([1]; 0.01 M phosphate buffer pH 6.0, 180.00 min): 4.36
Percent Release ([1]; 0.01 M phosphate buffer pH 6.0, 240.00 min): 4.37
Percent Release ([1]; 0.01 M phosphate buffer pH 6.0, 300.00 min): 6.34
Percent Release ([1]; 0.01 M phosphate buffer pH 6.0, 360.00 min): 7.88
dose proportionality of pharmacokinetics ([2]; IV, 100-900 μg dose range, with respect to C5 and AUC0-inf): dose-proportional
clearance ([2]; male, human, whole blood, range of means over single IV doses 100-900 μg, read-out: mean clearance): 48.3 to 59.2 mL/min
Vd ([2]; male, human, whole blood, range of means over single IV doses 100-900 μg, read-out: mean volume of distribution): 113 to 202 L
half-life ([2]; male, human, whole blood, range of means over the studied single IV doses 100-900 μg, read-out: mean half-life): 26 to 40.2 h
half-life ([2]; male, human, whole blood, single IV bolus 100 μg, harmonic mean ± pseudo-standard deviation, read-out: t1/2 (converted)): 26 ± 6 h
AUC(0-t) ([2]; male, human, whole blood, single IV bolus 100 μg, mean ± SD): 24.6 ± 5.89 ng·h/mL
AUC(0-inf) ([2]; male, human, whole blood, single IV bolus 100 μg, mean ± SD, read-out: AUC0-inf): 35.3 ± 6.15 ng·h/mL
clearance ([2]; male, human, whole blood, single IV bolus 100 μg, mean ± SD, read-out: CL (converted)): 48.3 mL/min
half-life ([2]; male, human, whole blood, single IV bolus 300 μg, harmonic mean ± pseudo-standard deviation, read-out: t1/2 (converted)): 35.9 ± 4.6 h
AUC(0-t) ([2]; male, human, whole blood, single IV bolus 300 μg, mean ± SD): 77.8 ± 13.7 ng·h/mL
AUC(0-inf) ([2]; male, human, whole blood, single IV bolus 300 μg, mean ± SD, read-out: AUC0-inf): 91.2 ± 14.7 ng·h/mL
clearance ([2]; male, human, whole blood, single IV bolus 300 μg, mean ± SD, read-out: CL (converted)): 56 mL/min
half-life ([2]; male, human, whole blood, single IV bolus 500 μg, harmonic mean ± pseudo-standard deviation, read-out: t1/2 (converted)): 40.2 ± 7.8 h
concentration at 5 min ([2]; male, human, whole blood, single IV bolus 500 μg, healthy males, blood, concentration at 5 minutes, mean ± SD (N = 7), read-out: C5): 56.5 ± 27.5 ng/mL
AUC(0-t) ([2]; male, human, whole blood, single IV bolus 500 μg, mean ± SD): 146 ± 32.4 ng·h/mL
AUC(0-inf) ([2]; male, human, whole blood, single IV bolus 500 μg, mean ± SD, read-out: AUC0-inf): 162 ± 29.6 ng·h/mL
clearance ([2]; male, human, whole blood, single IV bolus 500 μg, mean ± SD, read-out: CL (converted)): 52.8 mL/min
AUC(0-t) ([2]; male, human, whole blood, single IV bolus 700 μg, mean ± SD): 208 ± 19.4 ng·h/mL
AUC(0-inf) ([2]; male, human, whole blood, single IV bolus 700 μg, mean ± SD, read-out: AUC0-inf): 222 ± 19.6 ng·h/mL
AUC(0-t) ([2]; male, human, whole blood, single IV bolus 900 μg, mean ± SD): 241 ± 19.2 ng·h/mL
AUC(0-inf) ([2]; male, human, whole blood, single IV bolus 900 μg, mean ± SD, read-out: AUC0-inf): 254 ± 17.6 ng·h/mL
clearance ([2]; male, human, whole blood, single IV bolus 900 μg, mean ± SD, read-out: CL (converted)): 59.2 mL/min
β [2, 3]: 0.027 ± 0.006 h⁻¹
AUC0-inf/Dose [2, 3]: 0.35 ± 0.06 ng·h/mL/µg
AUC0-last/Dose [2, 3]: 0.25 ± 0.06 ng·h/mL/µg
C5/Dose [2, 3]: 0.13 ± 0.03 ng/mL/µg
Vdβ [2, 3]: 113 ± 23 L
β [2, 4]: 0.019 ± 0.002 h⁻¹
AUC0-inf/Dose [2, 4]: 0.30 ± 0.05 ng·h/mL/µg
AUC0-last/Dose [2, 4]: 0.26 ± 0.05 ng·h/mL/µg
C5/Dose [2, 4]: 0.12 ± 0.03 ng/mL/µg
Vdβ [2, 4]: 175 ± 23 L
β [2, 5]: 0.017 ± 0.003 h⁻¹
C5 ([2]; single IV bolus 500 μg, healthy males, blood, concentration at 5 minutes, mean ± SD (N = 7)): 56.50 ± 27.54 ng/mL
AUC0-inf/Dose [2, 5]: 0.32 ± 0.06 ng·h/mL/µg
AUC0-last/Dose [2, 5]: 0.29 ± 0.06 ng·h/mL/µg
AUC(0-inf) [2, 5]: 162.44 ± 9.58 ng·h/mL
C5/Dose [2, 5]: 0.11 ± 0.05 ng/mL/µg
Vdβ [2, 5]: 190 ± 49 L
β [2, 6]: 0.020 ± 0.001 h⁻¹
t1/2 ([2]; single IV bolus 700 μg, harmonic mean ± pseudo-standard deviation): 35.0 ± 2.4 h
AUC0-inf/Dose [2, 6]: 0.32 ± 0.03 ng·h/mL/µg
AUC0-last/Dose [2, 6]: 0.30 ± 0.03 ng·h/mL/µg
C5/Dose [2, 6]: 0.13 ± 0.01 ng/mL/µg
CL [2, 6]: 3.18 ± 0.28 L/h
Vdβ [2, 6]: 161 ± 15 L
β [2, 7]: 0.018 ± 0.002 h⁻¹
t1/2 ([2]; single IV bolus 900 μg, harmonic mean ± pseudo-standard deviation): 39.0 ± 3.9 h
AUC0-inf/Dose [2, 7]: 0.28 ± 0.02 ng·h/mL/µg
AUC0-last/Dose [2, 7]: 0.27 ± 0.02 ng·h/mL/µg
C5/Dose [2, 7]: 0.12 ± 0.02 ng/mL/µg
Vdβ [2, 7]: 202 ± 29 L
serious adverse events ([2]; single IV doses 100-900 μg): no serious adverse events
tolerability ([2]; healthy males): without safety concerns
tolerability ([2]; healthy males, listed as Zotarolimus): generally well tolerated
most common treatment-emergent adverse events ([2]; single IV doses, reported by two or more subjects in any one treatment group): injection site reaction and pain
